Measured values from US5593970A, “Heterocyclic anthracycline analogs” (priority 1994, dated 1997).
Structures can show the parent of a compound that is named as a salt. Where two headings read alike, the source gives them in different places.

Assays:
Assay in all cases: Microculture tetrazolium assay
Assay type in all cases: cell-based
SKOV3 = details: Homo sapiens, SK-OV-3, SKOV3
LOX = system: LOX
HT29 = details: Homo sapiens, HT-29, HT29
SKVLB = details: for VLB/OV3: IC50 ratio SKVLB/SKOV3; for IC50: SKVLB
T47D = details: Homo sapiens

| SMILES | IC50 (SKOV3) [µM] | IC50 (LOX) [µM] | IC50 (HT29) [µM] | VLB/OV3 (SKVLB) | IC50 (SKVLB) [µM] | IC50 (T47D) [µM] | IC50 (SKOV3; read-out: IC50) [µM] | IC50 (LOX; read-out: IC50) [µM] | IC50 (HT29; read-out: IC50) [µM] | IC50 (SKVLB; read-out: IC50) [µM] | IC50 (T47D; read-out: IC50) [µM] |
| --- | --- | --- | --- | --- | --- | --- | --- | --- | --- | --- | --- |
| CC[C@@H]1CC2=C(C(=O)c3cc4ccccc4c(O)c3C2=O)[C@@H](O[C@H]2C[C@H](N)[C@H](O)[C@H](C)O2)O1 [BCH-1614, (1'S,1R,3R)-5,12-dioxo-3-ethyl-6-hydroxy-1-(2',3',6'-trideoxy-3'-amino-4'-hydroxy-L-lyxohexopyranose)-3,4,5,12-tetrahydroanthraceno[2,3-c]pyran hydrochloride] | 1.02 | 1.09 | 3.58 | 1.64 | 1.67 | 0.742 |  |  |  |  |  |
| CC(=O)[C@@H]1CC2=C(C(=O)c3cc4ccccc4c(O)c3C2=O)[C@@H](O[C@H]2C[C@H](NC(=O)C(F)(F)F)[C@H](I)[C@H](C)O2)O1 [BCH-1617] |  |  |  | 1.38 |  |  | 2.15 | 3.04 | 1.2 | 2.96 | 2.43 |
| CC(=O)[C@H]1CC2=C(C(=O)c3cc4ccccc4c(O)c3C2=O)[C@H](O[C@H]2C[C@H](NC(=O)C(F)(F)F)[C@H](I)[C@H](C)O2)O1 [BCH-1618] |  |  |  | .098 |  | 3.66 | 3.26 | 3.75 | 3.63 | 3.21 |  |
| CC(=O)Nc1nc([C@@H]2CC3=C(C(=O)c4cc5ccccc5c(O)c4C3=O)[C@@H](O[C@H]3C[C@H](NC(=O)C(F)(F)F)[C@H](O)[C@H](C)O3)O2)cs1 [BCH-1623, (1'S,1R,3S)-6-hydroxy-1-(2',3',6'-trideoxy-3'-trifluoroacetamido-L-lyxohexopyranose)-3-(2-aza-3-acetamido-thienyl)-5,12-dioxo-3,4,5,12-tetrahydro-anthraceno-[2,3-c]-pyran] |  |  |  | 1.82 |  |  | 49.5 | 44.2 | 32.1 | 90.2 | 42.8 |
| CC(=O)[C@@H]1Cc2c(O)c3c(c(O)c2[C@@H](O[C@H]2C[C@H](O)[C@H](O)[C@H](C)O2)O1)C(=O)c1ccccc1C3=O [BCH-1624] |  |  |  |  |  |  | 85 | 100 | 100 | 100 | 100 |
| CC(=O)[C@H]1Cc2c(O)c3c(c(O)c2[C@H](O[C@H]2C[C@H](O)[C@H](O)[C@H](C)O2)O1)C(=O)c1ccccc1C3=O [BCH-1625] |  |  |  | 8.8 |  |  | 5.1 | 16 | 61 | 45 | 34 |
| CC(=O)O[C@@H]1[C@H](C)O[C@@H](OC2OC(C(=O)CO)CC3=C2C(=O)c2cc4ccccc4c(O)c2C3=O)C[C@@H]1OC(C)=O (stereo partly drawn) [BCH-1626] |  |  |  | 3.30 |  |  | 2.32 | 2.99 | 5.18 | 7.66 | 5.39 |
| CC(=O)C1CC2=C(C(=O)c3cc4ccccc4c(O)c3C2=O)C(OCCNC(=O)OC(C)(C)C)S1 (stereo not drawn) [BCH-1627] |  |  |  | 2.0 |  |  | 7.1 | 5 | 11 | 14 | 7.1 |
| CC(=O)C1CC2=C(C(=O)c3cc4ccccc4c(O)c3C2=O)C(OCCN)S1 (stereo not drawn) [BCH-1628] |  |  |  | 2.18 | 5.92 |  | 2.71 | 3.52 | 3.43 |  | 2.89 |
| CC[C@H]1CC2=C(C(=O)c3cc4ccccc4c(O)c3C2=O)[C@H](O[C@H]2C[C@H](O)[C@H](O)[C@H](C)O2)O1 [BCH-1629] |  |  |  | 2.8 | 19 |  | 6.7 | 7.4 | 22 |  | 9 |
| CC[C@@H]1CC2=C(C(=O)c3cc4ccccc4c(O)c3C2=O)[C@@H](O[C@H]2C[C@H](O)[C@H](O)[C@H](C)O2)O1 [BCH-1630] |  |  |  | 2.6 |  |  | 12 | 8.5 | 66 | 31 | 18 |
| CC[C@H]1Cc2c(O)c3c(c(O)c2[C@H](O[C@H]2C[C@H](N)[C@H](O)[C@H](C)O2)O1)C(=O)c1ccccc1C3=O [BCH-1633] |  |  |  | 1.92 |  |  | 0.245 | 0.201 | 0.0995 | 0.47 | 0.735 |
| CC(=O)C1CC2=C(C(=O)c3cc4ccccc4c(O)c3C2=O)C(O[C@H]2C[C@H](NC(=O)C(F)(F)F)[C@H](O)[C@H](C)O2)S1 (stereo partly drawn) [BCH-1635] |  |  |  | 1.60 |  |  | 1.99 | 1 | 0.876 | 3.18 | 3.11 |
| CC(=O)C1CC2=C(C(=O)c3cc4ccccc4c(O)c3C2=O)C(OC[C@H]2COC(C)(C)O2)S1 (stereo partly drawn) [BCH-1636] |  |  |  | 1.71 |  |  | 2.65 | 1.23 | 2.53 | 4.52 | 2.97 |
| CC(=O)C1CC2=C(C(=O)c3cc4ccccc4c(O)c3C2=O)C(O[C@H]2C[C@H](NC(=O)C(F)(F)F)[C@@H](O)[C@H](C)O2)O1 (stereo partly drawn) [BCH-1637] |  |  |  | 1.68 |  | 5.24 | 2.28 | 2.07 | 0.691 | 3.82 |  |
| CC(F)(F)C1CC2=C(CO1)C(=O)c1cc3ccccc3c(O)c1C2=O (stereo not drawn) [BCH-1638, 3-(1',1'-difluoroethyl)-6 and 11-hydroxy-1,2,3,4-tetrahydro-(2-oxygen)-naphthacene-5,12-dione] |  |  |  |  |  |  | > 100 | > 100 | > 100 | > 100 | > 100 |
| CC(F)(F)C1CC2=C(CO1)C(=O)c1c(cc3ccccc3c1O)C2=O (stereo not drawn) [BCH-1639, 3-(1',1'-difluoroethyl)-6 and 11-hydroxy-1,2,3,4-tetrahydro-(2-oxygen)-naphthacene-5,12-dione] |  |  |  |  |  |  | > 100 | > 100 | > 100 | > 100 | > 100 |
| CC(=O)[C@@H]1CC2=C(C(=O)c3cc4ccccc4c(O)c3C2=O)[C@@H](O[C@H]2C[C@H](NC(=O)C(F)(F)F)[C@H](O)[C@H](C)O2)S1 [BCH-1641] |  |  |  | 1.63 |  |  | 1.68 | 1.35 | 0.871 | 2.74 | 2 |
| CC(=O)C1CC2=C(C(=O)c3cc4ccccc4c(O)c3C2=O)C(OC[C@H](O)CO)S1 (stereo partly drawn) [BCH-1645] |  |  |  | 1.90 |  |  | 2.02 | 1.37 | 0.597 | 3.83 | 3.73 |
| C[C@@H]1O[C@@H](O[C@H]2OCCC3=C2C(=O)c2cc4ccccc4c(O)c2C3=O)C[C@H](NC(=O)C(F)(F)F)[C@@H]1O [BCH-1646] | 4.99 |  | 5.92 | 1.31 |  |  |  | 2.96 |  | 6.56 | 2.81 |
| C[C@@H]1O[C@@H](O[C@@H]2OCCC3=C2C(=O)c2cc4ccccc4c(O)c2C3=O)C[C@H](NC(=O)C(F)(F)F)[C@@H]1O [BCH-1647] |  |  |  | 1.67 |  |  | 3.59 | 3.24 | 2.5 | 6 | 0.871 |
| CCN(CC)C(=O)[C@H]1CC2=C(C(=O)c3cc4ccccc4c(O)c3C2=O)[C@H](O[C@H]2C[C@H](NC(=O)C(F)(F)F)[C@H](O)[C@H](C)O2)O1 [BCH-1653] |  |  |  | 1.85 | 5.97 |  | 3.22 | 3.92 | 0.885 |  | 7.09 |
| CCN(CC)C(=O)[C@@H]1CC2=C(C(=O)c3cc4ccccc4c(O)c3C2=O)[C@@H](O[C@H]2C[C@H](NC(=O)C(F)(F)F)[C@H](O)[C@H](C)O2)O1 [BCH-1656] | 4.12 |  |  | 1.72 |  |  |  | 3.86 | 3.77 | 7.07 | 5.19 |
| CC(=O)C1CC2=C(C(=O)c3cc4ccccc4c(O)c3C2=O)C(OC[C@@H]2COC(C)(C)O2)S1 (stereo partly drawn) [BCH-1660] |  |  |  | 0.88 |  |  | 2.29 | 2.81 | 6.28 | 2.02 | 4.97 |
